According to patent publication US20090023933A1, “METHOD FOR ISOLATING ACIDS FROM CHEMICAL REACTION MIXTURES BY USING 1-ALKYLIMIDAZOLES” (BASF Aktiengesellschaft, priority 2003, published 2009):

Assay: Behavior of the 1-alkylimidazoles toward 30% strength NaCl solution (shaking funnel, phase separation, Karl-Fischer and GC analysis)
Conditions: for Solubility of free base in NaCl solution in %: free 1-alkylimidazole, 5 g imidazole shaken with 5 g solution of 30 g NaCl in 100 g water, lower phase extracted, GC with internal standard; for Solubility of water in imidazole in %: water determination on upper (imidazole) phase by Karl-Fischer titration after shaking with NaCl solution
Procedure: A solution of 30 g of sodium chloride in 100 g of demineralized water was prepared. 5 g of this solution were admixed with 5 g of the imidazole derivative listed in a shaking funnel and the mixture was shaken vigorously. The phases were then separated and weighed.
The weight of the upper phase was recorded.
For the purposes of analysis, a water determination was carried out on the upper phase (by Karl-Fischer titration). The lower phase was, if present, separated off, admixed with 1N KOH solution and extracted twice with xylene. After drying over magnesium sulfate, an internal standard (heptadecane) was added and the amount of dissolved imidazole was backcalculated after GC analysis.

Solubility of free base in NaCl solution in % | Solubility of water in imidazole in % | SMILES
100% | ca. 50% | CCn1ccnc1 [Et (comp.)]
0.2% | 16% | CCCCn1ccnc1 [nBu, n-butylimidazole]
100% | ca. 50% | Cn1ccnc1 [Me (comp.)]
3% | 30% | CCCn1ccnc1 [nPr, n-propylimidazole]
